Test results as given in the OPERA property sets (Mansouri et al. 2018).

Settings: for log10 BCF / log10 biotransformation half-life (days): fish

SMILES | melting point [°C] | boiling point [°C] | further results
Cl.NCCc1ccc(O)c(O)c1 | 249 |  | 
CC(=O)[C@H]1CC[C@H]2[C@@H]3CC[C@H]4C[C@H](N)CC[C@]4(C)[C@H]3CC[C@]12C | 126 |  | 
Cc1n[nH]c(C)c1Cl | 118 | 221 | 
O=C1C=CC(=O)c2c(O)ccc(O)c21 | 232 |  | 
CN1CCN(C(=O)OC2c3nccnc3C(=O)N2c2ccc(Cl)cn2)CC1 (configuration not stated) | 178 |  | 
Clc1cc2ccc(Cl)c(Cl)c2cc1Cl |  |  | log10 Koa: 8.34
c1ccc(-c2nc(-c3ccccc3)c(-c3ccccc3)[nH]2)cc1 | 275 |  | 
O=C1c2ccccc2C(=O)c2c1ccc1ccccc21 | 170 |  | ready biodegradability: not readily biodegradable; log10 BCF: 1.69; log10 biotransformation half-life (days): -0.84
NC(=O)c1cccnc1 | 130 |  | 
N#CC1CCCCC1 | 11 |  | 
C=C(Cl)c1ccccc1 | -23 | 199 | 
CC(C)(C)c1ccc(Br)cc1 | 19 | 232 | 
Cc1cc(Br)ccc1[N+](=O)[O-] | 78 |  | 
CN1CSC(=S)N(C)C1 | 106 |  | log10 Henry constant (atm·m³/mol): -9.58; log10 Koc (L/kg): 1; log10 vapour pressure (mmHg): -5.55; ready biodegradability: not readily biodegradable
CC(=O)NN | 67 |  | 
CCC1CC1 | -149 | 35.9 | 
CCCCOC(=O)C(=O)OCCCC | -30.5 | 241 | 
Cc1ccc(CBr)cc1 | 35 | 220 | 
CCCC/C=C\CCCCCCCCCC=O |  | 250 | 
COC(=O)C1CC1 |  | 115 | 
CO[Si](C)(OC)OC |  | 102 | 
C[C@H]1CC[C@]2(NC1)O[C@H]1C[C@H]3[C@@H]4CC[C@H]5C[C@@H](O)CC[C@]5(C)[C@H]4CC[C@]3(C)[C@H]1[C@@H]2C | 210 |  | 
CCNCCNCC |  | 146 | 
O=C[O-].[Na+] | 253 |  | 
CCc1cccc(C(C)=O)c1 | -20 |  | log10 vapour pressure (mmHg): 0.357
Cc1cc(C)c(Cl)c(O)c1Cl | 87.5 |  | 

SMILES | melting point [°C] | boiling point [°C] | further results
C=C1CC2CC1CC2(C)C (configuration not stated) |  | 152 | 
C#CCCOC1CCCCO1 (configuration not stated) |  |  | ready biodegradability: readily biodegradable
CC[N+](CC)(CC)CCOC(=O)C(C1CCCC1)C1CCCC1.[Br-] | 186 |  | 
CCOc1ccc(CC)cc1 |  | 210 | 
CCCC(C)Br (configuration not stated) | -95.5 | 117 | log10 vapour pressure (mmHg): 1.33
Clc1ccc2c(Cl)ccc(Cl)c2c1 |  |  | log10 Koa: 7.27
O=C1c2ccccc2C(=O)c2cc(Br)ccc21 | 206 |  | 
CCOC(=O)CCCCCC(=O)O | 10 |  | 
O=C=Nc1ccc([N+](=O)[O-])cc1 | 57 |  | 
O=c1cc(-c2ccccc2)oc2ccccc12 | 100 |  | 
CC(=O)Oc1cccc(O)c1 |  | 283 | 
CC(C)c1cccc(C(C)C)c1O | 18 | 256 | ready biodegradability: not readily biodegradable
CN(C)c1ccccc1 | 2.5 | 193 | log10 Koc (L/kg): 2.26; log10 vapour pressure (mmHg): -0.155; ready biodegradability: not readily biodegradable; log10 BCF: 0.9; log10 biotransformation half-life (days): -0.96
Cc1ccccc1Oc1cccnn1 | 78 |  | 
CCOc1ccc(NS(=O)(=O)c2ccc(N)cc2)nn1 | 183 |  | 
CCC(C)(CC)C(C)C |  | 145 | 
C=CCc1cc(OC)c(OC)c(OC)c1OC | 25 |  | 
FC(Cl)(Br)Br |  | 80.3 | 
CCC(C(=O)O)c1ccc(-c2ccccc2)cc1 (configuration not stated) | 124 |  | 
CCCCCCCBr | -58 | 179 | log10 vapour pressure (mmHg): 0.105
COc1ccc(OC)c([N+](=O)[O-])c1 | 72.5 |  | 
O=C(O)c1cccc2ccccc12 |  |  | ready biodegradability: not readily biodegradable
OC(COc1ccccc1)COc1ccccc1 | 81.5 |  | 
C=CC(=O)O[C@@H]1C[C@H]2CC[C@]1(C)C2(C)C | 97 |  | 
CCB(CC)CC | -93 | 95 | 
C[C@]12CC[C@@H]3c4ccc(O)cc4CC[C@H]3[C@@H]1CC[C@@H]2O | 200 |  | 

SMILES | melting point [°C] | boiling point [°C] | further results
CC(C)(C)C(=O)C(=O)O | 90.5 | 189 | 
Brc1ccc2c(c1)Oc1ccccc1O2 | 90 |  | log10 vapour pressure (mmHg): -4.52
NCCCC1OCC2(CO1)COC(CCCN)OC2 (configuration not stated) |  |  | ready biodegradability: not readily biodegradable
ClC1CCCCC1 | -44 | 142 | log10 vapour pressure (mmHg): 0.828; ready biodegradability: not readily biodegradable; log10 BCF: 2.34; log10 biotransformation half-life (days): 0.41
Oc1cccnc1 |  |  | ready biodegradability: readily biodegradable
CCCNCCO |  | 183 | 
COC(=O)c1ccco1 |  | 181 | 
CC1=NNC(=O)N(/N=C/c2cccnc2)C1 | 217 |  | 
C#CCCCO |  | 154 | 
c1ccc(CCCc2ccccc2)cc1 | 6 | 300 | 
CCn1cc(C(=O)O)c(=O)c2cc(F)c(N3CCNC(C)C3)c(F)c21 (configuration not stated) | 240 |  | 
O=C(O)c1cccc(Cl)c1[N+](=O)[O-] | 238 |  | 
FC(Cl)C(F)(F)Br (configuration not stated) |  | 52.5 | 
COP(=S)(OC)Oc1cc(Cl)c(Cl)cc1Cl | 41 |  | log10 vapour pressure (mmHg): -4.12; log10 BCF: 3.58; log10 biotransformation half-life (days): 0.95
COC1[C@@H](O[C@@H]2O[C@H](C)[C@@H](O[C@H]3C[C@@](C)(O)[C@H](OC(=O)CC(C)C)[C@H](C)O3)[C@H](N(C)C)[C@H]2O)[C@@H](CC=O)C[C@@H](C)[C@@H](O)C=CC=CC[C@@H](C)OC(=O)C[C@H]1OC(C)=O (some centres not stated) | 132 |  | 
CCNC=O |  | 198 | 
CCN(CC)S(=O)(=O)c1ccc(C(=O)O)cc1 | 193 |  | 
CCN(CC)C(=O)C1CN2CCc3cc(OC)c(OC)cc3C2CC1OC(C)=O (configuration not stated) | 131 |  | 
CC(CCl)CBr (configuration not stated) |  | 155 | 
Nc1ccc(S(=O)(=O)Nc2ccccn2)cc1 | 192 |  | 
Nc1ccc(O)c2c1C(=O)c1ccccc1C2=O | 216 |  | log10 vapour pressure (mmHg): -8.52
Clc1cc(Cl)c(Cl)c(-c2c(Cl)c(Cl)cc(Cl)c2Cl)c1Cl |  |  | log10 Henry constant (atm·m³/mol): -4.74; log10 Koc (L/kg): 6.36; log10 BCF: 5.82
O=CC1CC=CCC1 (configuration not stated) | 2 | 105 | 
CCCOC=O | -92.9 | 80.9 | log10 Koa: 2.66; log10 vapour pressure (mmHg): 1.92
O=c1oc2ccccc2cc1O | 154 |  | 
CCCCNC(=O)c1ccc(Cl)cc1O | 91.5 |  | 

SMILES | melting point [°C] | boiling point [°C] | further results
Cc1[nH]c2ccccc2c1C | 106 | 285 | 
Nc1ccc(F)cc1 | -0.8 | 182 | 
O=C(CC(=O)C(F)(F)F)c1cccs1 | 42 |  | 
c1ccc(-c2noc(-c3ccccc3)n2)cc1 | 109 | 290 | 
O=C(CCC(=O)Oc1ccccc1)Oc1ccccc1 | 121 | 330 | 
c1ccc2cc(Oc3ccc4ccccc4c3)ccc2c1 | 105 |  | 
COc1ccc2cc1Oc1ccc(cc1)C[C@H]1c3cc(c(OC)cc3CCN1C)Oc1c(OC)c(OC)cc3c1[C@H](C2)N(C)CC3 | 218 |  | 
NC(=O)c1cccc2ccccc12 | 206 |  | 
Cc1ccc2c(C)cccc2c1C | 33.5 |  | 
C=CCC(C)CCC (configuration not stated) |  | 113 | 
CCCCCCCCCCCCCCCC(=O)OC[C@H](COP(=O)([O-])OCC[N+](C)(C)C)OC(=O)CCCCCCCCCCCCCCC | 234 |  | 
CC(=O)Nc1ccc(/N=N/c2cc(C)ccc2O)cc1 | 195 |  | log10 vapour pressure (mmHg): -10.3
C=Cc1ccccc1C | -68.5 | 170 | log10 vapour pressure (mmHg): 0.268
CC(C)(O)CCc1ccccc1 | 24.5 |  | 
FCBr |  | 19 | 
C=CCNc1ccccc1 |  | 219 | 
CNc1ccc2oc(C[C@@H]3OC4(CC[C@@H]3C)O[C@H](C(C)C(=O)c3ccc[nH]3)[C@H](C)C[C@H]4C)nc2c1C(=O)O (some centres not stated) | 182 |  | 
OCCNCO |  |  | ready biodegradability: readily biodegradable
CCCCC(C)=O | -55.5 | 128 | log10 Koa: 3.68; log10 vapour pressure (mmHg): 1.06; ready biodegradability: not readily biodegradable
OC[C@@H](O)[C@H](O)[C@@H](O)CO | 98.8 |  | ready biodegradability: readily biodegradable
Cc1cc(O)ccc1[N+](=O)[O-] | 128 |  | log10 Henry constant (atm·m³/mol): -7.79; ready biodegradability: not readily biodegradable; log10 BCF: 1.06
OCc1ccccc1C(c1ccc(O)cc1)c1ccc(O)cc1 | 202 |  | 
CC=C(C)Cl | -19 | 64.5 | 
CCCCOC(=O)/C=C\C(=O)OCCCC | -85 | 281 | log10 vapour pressure (mmHg): -3.21
CCOC(=O)c1ccncc1 | 23 | 220 | 
CCCCCCCCCCl | -39.4 | 204 | log10 vapour pressure (mmHg): -0.574

SMILES | melting point [°C] | boiling point [°C] | further results
CC(=O)OC(C)CC(C)C (configuration not stated) | -64 | 148 | log10 vapour pressure (mmHg): 0.602; ready biodegradability: readily biodegradable
ClC1=C(Cl)C(Cl)(Cl)C(Cl)=C1Cl | -9 | 239 | log10 Henry constant (atm·m³/mol): -1.57; log10 vapour pressure (mmHg): -1.22; ready biodegradability: not readily biodegradable
O=Nc1c(O)ccc2ccccc12 | 110 |  | 
C/C=N/O | 45 | 115 | 
CCC(N)(CO)CO | 37.5 |  | ready biodegradability: not readily biodegradable
CCOS(=O)OCC |  | 158 | 
CCCCCCCCCCCC(C)O (configuration not stated) | 23 |  | 
Cc1nc([N+](=O)[O-])cn1-c1ccc([N+](=O)[O-])cc1 | 186 |  | 
C[C@]12C=CC(=O)C=C1CC[C@@H]1[C@@H]2CC[C@@]2(C)[C@H]1CC[C@]2(C)O | 164 |  | 
O=C(CC(=O)C(F)(F)F)C(F)(F)F |  | 70 | 
NCCc1ccc(Br)cc1 |  |  | ready biodegradability: readily biodegradable
CC(C)(C)c1ccncc1 | -41 | 196 | 
C[C@](N)(Cc1ccc(O)cc1)C(=O)O | 312 |  | 
c1ccc2c(c1)Nc1ccccc1S2 | 188 | 371 | ready biodegradability: not readily biodegradable; log10 BCF: 2.55; log10 biotransformation half-life (days): 0.04
O=C(O)c1ccc(-c2ccccc2)cc1 | 228 |  | 
CCC(C)I (configuration not stated) | -104 | 120 | log10 vapour pressure (mmHg): 1.23
O=C(O)c1ccc(F)cc1 | 185 |  | 
CC(COc1ccc(Oc2ccccc2)cc1)Oc1ccccn1 (configuration not stated) | 46 |  | log10 vapour pressure (mmHg): -5.66
NS(=O)(=O)c1cc2c(cc1Cl)CN(C1CCCCC1)C2=O | 267 |  | 
Cc1cccc(NC(=O)c2ccccc2C(=O)O)c1 | 150 |  | 
CCNC(C)=O |  | 205 | ready biodegradability: readily biodegradable
CCCCCCSCCCCCC |  | 230 | 
Fc1cc(F)nc(F)c1 |  | 94.5 | 
CNC(=O)CSP(=S)(OC)OC | 52 |  | log10 Koc (L/kg): 1.2; log10 vapour pressure (mmHg): -4.73; ready biodegradability: not readily biodegradable; log10 BCF: 0.2; log10 biotransformation half-life (days): -1.01
